28 molecules from US12264134B2 (Merck Sharp & Dohme LLC, priority 2018, dated 2025) can be followed below.

Structures are written as SMILES.

As usually defined, the IC50 is the concentration needed to halve the response being measured.

The target in this test is IDO1 (Homo sapiens, UniProt P14902). As to the kind of experiment: IDO1 Cellular Assay in HeLa Cells Stimulated with IFNγ. Type of test: cell-based. Particulars: read-out: HeLa Cell Potency, IC50.
Sequence of IDO1 (P14902 whole entry): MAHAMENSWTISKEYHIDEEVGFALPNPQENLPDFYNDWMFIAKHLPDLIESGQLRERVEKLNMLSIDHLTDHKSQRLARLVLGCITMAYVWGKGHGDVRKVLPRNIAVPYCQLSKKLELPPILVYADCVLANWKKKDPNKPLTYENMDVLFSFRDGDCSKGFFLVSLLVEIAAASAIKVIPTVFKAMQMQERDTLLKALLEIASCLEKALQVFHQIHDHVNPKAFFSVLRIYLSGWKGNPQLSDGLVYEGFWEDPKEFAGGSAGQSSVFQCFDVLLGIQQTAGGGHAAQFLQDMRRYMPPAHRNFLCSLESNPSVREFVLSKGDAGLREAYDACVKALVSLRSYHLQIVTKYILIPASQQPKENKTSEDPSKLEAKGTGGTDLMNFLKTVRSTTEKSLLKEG
For the molecule `Cc1cccc(N2CCN(C(=O)Cn3nc(C(=O)N4CC5CCC4CC5O)c4c3CCC4)CC2)c1C` (stereo not shown) [Example 152, 1-[4-(2,3-dimethylphenyl)piperazin-1-yl]-2-[3-(5-hydroxy-2-azabicyclo[2.2.2]octane-2-carbonyl)-5,6-dihydrocyclopenta[c]pyrazol-1(4H)-yl]ethan-1-one], the IC50 was 34.2 nM.

As to `Cc1cccc(N2CCN(C(=O)Cn3nc(C(=O)N4CC5CCC(F)(F)C5C4)c4c3CCC4)CC2)c1C` (stereo not shown) [Example 153, 2-[3-(4,4-difluorohexahydrocyclopenta[c]pyrrole-2(1H)-carbonyl)-5,6-dihydrocyclopenta[c]pyrazol-1(4H)-yl]-1-[4-(2,3-dimethylphenyl)piperazin-1-yl]ethan-1-one], the IC50 was 3.19 nM.

Consider `Cc1cccc(N2CCN(C(=O)Cn3nc(C(=O)N4CCC(CCO)C4)c4c3CCC4)CC2)c1C` (stereo not shown) [Example 154, 1-[4-(2,3-dimethylphenyl)piperazin-1-yl]-2-{3-[3-(2-hydroxyethyl)pyrrolidine-1-carbonyl]-5,6-dihydrocyclopenta[c]pyrazol-1(4H)-yl}ethan-1-one], for which the IC50 was determined as 2.99 nM.

Consider `Cc1cccc(N2CCN(C(=O)Cn3nc(C(=O)N4CCOC(CO)C4)c4c3CCC4)CC2)c1C` (stereo not shown) [Example 155, 1-[4-(2,3-dimethylphenyl)piperazin-1-yl]-2-{3-[2-(hydroxymethyl)morpholine-4-carbonyl]-5,6-dihydrocyclopenta[c]pyrazol-1(4H)-yl}ethan-1-one], for which the IC50 came out at 28.5 nM.

With `Cc1cccc(N2CCN(C(=O)Cn3nc(C(=O)N4CCOC(CO)C4)c4c3CCC4)CC2)c1C` (stereo not shown) [Example 156, 1-[4-(2,3-dimethylphenyl)piperazin-1-yl]-2-{3-[2-(hydroxymethyl)morpholine-4-carbonyl]-5,6-dihydrocyclopenta[c]pyrazol-1(4H)-yl}ethan-1-one], the IC50 is 29.3 nM.

As to `Cc1cccc(N2CCN(C(=O)Cn3nc(C(=O)N4CCN(C(C)C)CC4)c4c3CCC4)CC2)c1C` [Example 159, 1-[4-(2,3-dimethylphenyl)piperazin-1-yl]-2-{3-[4-(propan-2-yl)piperazine-1-carbonyl]-5,6-dihydrocyclopenta[c]pyrazol-1(4H)-yl}ethan-1-one], the IC50 came to 25.2 nM.

On to `Cc1cccc(N2CCN(C(=O)Cn3nc(C(=O)N4CCN(CCO)CC4)c4c3CCC4)CC2)c1C` [Example 162, 1-[4-(2,3-dimethylphenyl)piperazin-1-yl]-2-{3-[4-(2-hydroxyethyl)piperazine-1-carbonyl]-5,6-dihydrocyclopenta[c]pyrazol-1(4H)-yl}ethan-1-one], for which the IC50 is 10.5 nM.

For the molecule `Cc1cccc(N2CCN(C(=O)Cn3nc(C(=O)N4CCC5(CC4)COC(=O)N5)c4c3CCC4)CC2)c1C` [Example 163, 8-(1-{2-[4-(2,3-dimethylphenyl)piperazin-1-yl]-2-oxoethyl}-1,4,5,6-tetrahydrocyclopenta[c]pyrazole-3-carbonyl)-3-oxa-1,8-diazaspiro[4.5] decan-2-one], the IC50 amounted to 10.3 nM.

In the case of `Cc1cccc(N2CCN(C(=O)Cn3nc(C(=O)N4CCC(N5CCCC5)CC4)c4c3CCC4)CC2)c1C` [Example 164], the IC50 came to 68.9 nM.

In the case of `Cc1cccc(N2CCN(C(=O)Cn3nc(C(=O)N4CCN(C)[C@@H](C)C4)c4c3CCC4)CC2)c1C` [Example 166, 1-[4-(2,3-dimethylphenyl)piperazin-1-yl]-2-{3-[(3S)-3,4-dimethylpiperazine-1-carbonyl]-5,6-dihydrocyclopenta[c]pyrazol-1(4H)-yl}ethan-1-one], the IC50 came to 6.18 nM.

Consider `Cc1cccc(N2CCN(C(=O)Cn3nc(C(=O)N4CCC(O)(C(N)=O)CC4)c4c3CCC4)CC2)c1C` [Example 169, 1-(1-{2-[4-(2,3-dimethylphenyl)piperazin-1-yl]-2-oxoethyl}-1,4,5,6-tetrahydrocyclopenta[c]pyrazole-3-carbonyl)-4-hydroxypiperidine-4-carboxamide], for which the 50% inhibitory concentration (IC50) was determined as 30.4 nM.

With `Cc1cccc(N2CCN(C(=O)Cn3nc(C(=O)N4CCC(O)(CCC(F)(F)F)CC4)c4c3CCC4)CC2)c1C` [Example 170, 1-[4-(2,3-dimethylphenyl)piperazin-1-yl]-2-{3-[4-hydroxy-4-(3,3,3-trifluoropropyl)piperidine-1-carbonyl]-5,6-dihydrocyclopenta[c]pyrazol-1(4H)-yl}ethan-1-one], the IC50 was determined as 6.31 nM.

For `Cc1cccc(N2CCN(C(=O)Cn3nc(C(=O)N4CCC5(C4)CC5(F)F)c4c3CCC4)CC2)c1C` (stereo not shown) [Example 171, 2-[3-(1,1-difluoro-5-azaspiro[2.4]heptane-5-carbonyl)-5,6-dihydrocyclopenta[c]pyrazol-1(4H)-yl]-1-[4-(2,3-dimethylphenyl)piperazin-1-yl]ethan-1-one], the IC50 was 5.79 nM.

For `Cc1cccc(N2CCN(C(=O)Cn3nc(C(=O)N4CCC5(CCNC5)CC4)c4c3CCC4)CC2)c1C` [Example 175, 2-[3-(2,8-diazaspiro[4.5]decane-8-carbonyl)-5,6-dihydrocyclopenta[c]pyrazol-1(4H)-yl]-1-[4-(2,3-dimethylphenyl)piperazin-1-yl]ethan-1-one], the IC50 is 498 nM.

On to `Cc1cccc(N2CCN(C(=O)Cn3nc(C(=O)N4CCC(C)(N)CC4)c4c3CCC4)CC2)c1C` [Example 176, 2-[3-(4-amino-4-methylpiperidine-1-carbonyl)-5,6-dihydrocyclopenta[c]pyrazol-1(4H)-yl]-1-[4-(2,3-dimethylphenyl)piperazin-1-yl]ethan-1-one], for which the IC50 came to 476 nM.

On to `Cc1cccc(N2CCN(C(=O)Cn3nc(C(=O)N4CCC5(CCCN5)CC4)c4c3CCC4)CC2)c1C` [Example 177, 2-[3-(1,8-diazaspiro[4.5]decane-8-carbonyl)-5,6-dihydrocyclopenta[c]pyrazol-1(4H)-yl]-1-[4-(2,3-dimethylphenyl)piperazin-1-yl]ethan-1-one], for which the IC50 was determined as 405 nM.

As to `Cc1cccc(N2CCN(C(=O)Cn3nc(C(=O)N4CCC(F)(CN)CC4)c4c3CCC4)CC2)c1C` [Example 178, 2-{3-[4-(aminomethyl)-4-fluoropiperidine-1-carbonyl]-5,6-dihydrocyclopenta[c]pyrazol-1(4H)-yl}-1-[4-(2,3-dimethylphenyl)piperazin-1-yl]ethan-1-one], the IC50 turned out to be 16.4 nM.

`Cc1cccc(N2CCN(C(=O)Cn3nc(C(=O)N4CCC(C)(CN)CC4)c4c3CCC4)CC2)c1C` [Example 179, 2-{3-[4-(aminomethyl)-4-methylpiperidine-1-carbonyl]-5,6-dihydrocyclopenta[c]pyrazol-1(4H)-yl}-1-[4-(2,3-dimethylphenyl)piperazin-1-yl]ethan-1-one]: the IC50 is 82.8 nM.

Regarding `Cc1cccc(N2CCN(C(=O)Cn3nc(C(=O)N4CCC(CN)CC4)c4c3CCC4)CC2)c1C` [Example 180, 2-{3-[4-(aminomethyl)piperidine-1-carbonyl]-5,6-dihydrocyclopenta[c]pyrazol-1(4H)-yl}-1-[4-(2,3-dimethylphenyl)piperazin-1-yl]ethan-1-one], the IC50 is 11.6 nM.

On to `Cc1cccc(N2CCN(C(=O)Cn3nc(C(=O)N4CCC5(CC4)COCC5O)c4c3CCC4)CC2)c1C` (stereo not shown) [Example 182, 1-[4-(2,3-dimethylphenyl)piperazin-1-yl]-2-[3-(4-hydroxy-2-oxa-8-azaspiro[4.5]decane-8-carbonyl)-5,6-dihydrocyclopenta[c]pyrazol-1(4H)-yl]ethan-1-one], for which the IC50 was 6.25 nM.

Take `Cc1cccc(N2CCN(C(=O)Cn3nc(C(=O)N4CCC5(CCCC(=O)N5)CC4)c4c3CCC4)CC2)c1C` [Example 183, 9-(1-{2-[4-(2,3-dimethylphenyl)piperazin-1-yl]-2-oxoethyl}-1,4,5,6-tetrahydrocyclopenta[c]pyrazole-3-carbonyl)-1,9-diazaspiro[5.5]undecan-2-one]: the IC50 was 3.22 nM.

For the molecule `Cc1cccc(N2CCN(C(=O)Cn3nc(C(=O)N4CCC5(CC4)CNC(=O)N5)c4c3CCC4)CC2)c1C` [Example 184, 8-(1-{2-[4-(2,3-dimethylphenyl)piperazin-1-yl]-2-oxoethyl}-1,4,5,6-tetrahydrocyclopenta[c]pyrazole-3-carbonyl)-1,3,8-triazaspiro[4.5]decan-2-one], the IC50 is 80.2 nM.

Regarding `CC(=O)NC1CCCN(C(=O)c2nn(CC(=O)N3CCN(c4cccc(C)c4C)CC3)c3c2CCC3)C1` (stereo not shown) [Example 185, N-[1-(1-{2-[4-(2,3-dimethylphenyl)piperazin-1-yl]-2-oxoethyl}-1,4,5,6-tetrahydrocyclopenta[c]pyrazole-3-carbonyl)piperidin-3-yl]acetamide], the IC50 was determined as 120 nM.

With `Cc1cccc(N2CCN(C(=O)Cn3nc(C(=O)N4CCCC(N(C)C)C4)c4c3CCC4)CC2)c1C` (stereo not shown) [Example 186, 2-{3-[3-(dimethylamino)piperidine-1-carbonyl]-5,6-dihydrocyclopenta[c]pyrazol-1(4H)-yl}-1-[4-(2,3-dimethylphenyl)piperazin-1-yl]ethan-1-one], the IC50 was 37.9 nM.

With `Cc1cccc(N2CCN(C(=O)Cn3nc(C(=O)N4CCCC(N5CCCC5)C4)c4c3CCC4)CC2)c1C` (stereo not shown) [Example 187, 1-[4-(2,3-dimethylphenyl)piperazin-1-yl]-2-{3-[3-(pyrrolidin-1-yl)piperidine-1-carbonyl]-5,6-dihydrocyclopenta[c]pyrazol-1(4H)-yl}ethan-1-one], the IC50 was 76.1 nM.

For `Cc1cccc(N2CCN(C(=O)Cn3nc(C(=O)N4CCC(NC(N)=O)CC4)c4c3CCC4)CC2)c1C` [Example 188, N-[1-(1-{2-[4-(2,3-dimethylphenyl)piperazin-1-yl]-2-oxoethyl}-1,4,5,6-tetrahydrocyclopenta[c]pyrazole-3-carbonyl)piperidin-4-yl]urea], the 50% inhibitory concentration (IC50) came to 9.76 nM.

`Cc1cccc(N2CCN(C(=O)Cn3nc(C(=O)N4CCC(O)(C(F)(F)F)CC4)c4c3CCC4)CC2)c1C` [Example 189, 1-[4-(2,3-dimethylphenyl)piperazin-1-yl]-2-{3-[4-hydroxy-4-(trifluoromethyl)piperidine-1-carbonyl]-5,6-dihydrocyclopenta[c]pyrazol-1(4H)-yl}ethan-1-one]: the IC50 came to 4.53 nM.

In the case of `Cc1cccc(N2CCN(C(=O)Cn3nc(C(=O)N4CCC5(CC4)CNC(=O)CO5)c4c3CCC4)CC2)c1C` [Example 190, 9-(1-{2-[4-(2,3-dimethylphenyl)piperazin-1-yl]-2-oxoethyl}-1,4,5,6-tetrahydrocyclopenta[c]pyrazole-3-carbonyll)-1-oxa-4,9-diazaspiro[5.5]undecan-3-one], the IC50 was 1.62 nM.
